Structures can show the parent of a compound that is named as a salt.
Columns and labels:
[1] = tested on: HIF1a protein in H9c2 rat cardiomyocytes; experiment: Cell-based HIF-alpha stabilization assay (inhibition of PHD in cells); conditions: 24 hrs compound incubation, HIF1a protein by ELISA; for EC50: Rattus norvegicus, H9c2, 24 h, read-out: Inhibition of PHD in cells (pEC50) (converted)
Description: Example B Inhibition of PHD in Cells
PHD Inhibition is Determined Using (Secondary Assay)
Cell-Based HIF-Alpha Stabilization Assay:
H9c2 rat cardiomyocytes (ATCC) were seeded in 96-well tissue culture microplates and cultured for 24 hours prior to addition of compounds (11 point range of serial dilutions) or dimethylsulfoxide vehicle. After 24 hrs of compound incubation, whole cell extracts were prepared by lysing cells in cell extraction buffer containing protease and phosphatase inhibitors (Meso-Scale Discovery). HIF1a protein content was assessed by ELISA (Meso-Scale Discovery) and expressed as a % relative to the maximum response obtained from the positive control, desferrioxamine (Sigma-Aldrich). Compound EC50s were obtained by curve-fitting using XLfit4 MicroSoft Excel curve-fitting software. Compound EC50pos were obtained using XLfit4 to calculate the compound concentration that results in 50% of the desferrioxamine maximum response.

[2] = target: PHD2 enzyme (residues 181-417) (Homo sapiens (Human), UniProt Q9GZT9); experiment: Inhibition of PHD enzyme (LC/MS peptide hydroxylation assay); type: biochemical; conditions: PHD2 (residues 181-417) 5 nM, 60 min pre-incubation; -log(IC50), IC50 molar
Description: Example A Inhibition of PHD Enzyme
The IC50 values for the PHD2 enzyme (residues 181-417) were determined by mixing increasing amounts of inhibitor with a fixed amount of enzyme (5 nM, final concentration) and Biotin labeled peptide (Biotin-Asp-Leu-Glu-Met-Leu-Ala-Pro-Tyr-Ile-Pro-Met-Asp-Asp-Asp-Phe-Gln-Leu, 1 uM final concentration) and 2-Oxyglutarate (2 uM final concentration) in 50 mM HEPES, 50 mM KCl, 0.5 mM TCEP, 2 uM FeCl2, 0.1 mg/ml BSA, at pH 7.3. The reaction was conducted by pre-incubating the enzyme in the presence of inhibitor for 60 min at room temperature. The activity of the free enzyme was measured by adding the peptide, the 2-Oxoglutarate (see above for final concentrations), and Ascorbic Acid (1 mM final concentration). The enzymatic activity was quenched after 60 min by adding an excess of a tight binding inhibitor to the assay mixture. The amount of product released was measured by using a LC/MS system (Agilent HPLC with Applied Biosystems API3000 Mass Spectrometer). Data were analyzed using the classical isotherm equation for the determination of IC50 values and are pIC50, i.e., −log(IC50), where IC50 is molar concentration and are reported as pIC50, i.e., −log(IC50), where IC50 is molar concentration.

Sequence of PHD2 enzyme (residues 181-417) (Q9GZT9 181-417): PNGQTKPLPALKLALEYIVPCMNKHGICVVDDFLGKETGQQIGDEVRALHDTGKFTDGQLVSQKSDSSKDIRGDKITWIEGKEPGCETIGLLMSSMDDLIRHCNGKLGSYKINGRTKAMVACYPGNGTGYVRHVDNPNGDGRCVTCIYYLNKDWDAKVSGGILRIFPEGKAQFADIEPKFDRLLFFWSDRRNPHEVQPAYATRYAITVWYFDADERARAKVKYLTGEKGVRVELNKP

Row | SMILES | PHD Inhibition (pIC50) [2] | EC50 [1] [nM] | also measured
1 | C[C@@H](NC(=O)c1ccc(-n2ncc(-c3ccc(C#N)cc3)c2O)nc1)C1CC1 [Example 88, (R)-6-(4-(4-cyanophenyl)-5-hydroxy-1H-pyrazol-1-yl)-N-(1-cyclopropylethyl)nicotinamide] |  |  | Inhibition of PHD in cells (pEC50) [1]: 5.50
2 | CN1CCC(NC(=O)c2ccc(-n3ncc(-c4ccc(C#N)cc4)c3O)nc2)CC1=O (stereo not drawn) [Example 82, 6-(4-(4-cyanophenyl)-5-hydroxy-1H-pyrazol-1-yl)-N-(1-methyl-2-oxopiperidin-4-yl)nicotinamide] |  | 4790 | 
3 | COc1cc(-c2cnn(-c3ccc(C(=O)NCCCn4ccnc4)cn3)c2O)ccn1 [Example 21, N-(3-(1H-imidazol-1-yl)propyl)-6-(5-hydroxy-4-(2-methoxypyridin-4-yl)-1H-pyrazol-1-yl)nicotinamide] |  |  | Inhibition of PHD in cells (pEC50) [1]: 6.46
4 | COc1cc(-c2cnn(-c3ccc(C(=O)NCCCN4CCCCC4C)cn3)c2O)ccn1 (stereo not drawn) [Example 29, 6-(5-hydroxy-4-(2-methoxypyridin-4-yl)-1H-pyrazol-1-yl)-N-(3-(2-methylpiperidin-1-yl)propyl)nicotinamide] |  | 871 | 
5 | COc1cc(-c2cnn(-c3ccc(C(=O)NCCC4CCCN4C)cn3)c2O)ccn1 (stereo not drawn) [Example 23, 6-(5-hydroxy-4-(2-methoxypyridin-4-yl)-1H-pyrazol-1-yl)-N-(2-(1-methylpyrrolidin-2-yl)ethyl)nicotinamide] |  | 1000 | 
6 | CCCN1CCN(C(=O)c2ccc(-n3ncc(-c4ccc(C#N)cc4C)c3O)nc2)C[C@@H]1C [Example 374, (S)-4-(5-hydroxy-1-(5-(3-methyl-4-propylpiperazine-1-carbonyl)pyridin-2-yl)-1H-pyrazol-4-yl)-3-methylbenzonitrile] |  | 100 | 
7 | CCN1CCC(CN(C)C(=O)c2ccc(-n3ncc(-c4ccc(C#N)cc4)c3O)nc2)C1 (stereo not drawn) [Example 366, 6-(4-(4-cyanophenyl)-5-hydroxy-1H-pyrazol-1-yl)-N-((1-ethylpyrrolidin-3-yl)methyl)-N-methylnicotinamide] |  | 3800 | 
8 | COc1cc(-c2cnn(-c3ccc(C(=O)NCCC4CCOCC4)cn3)c2O)ccn1 [Example 11, 6-(5-hydroxy-4-(2-methoxypyridin-4-yl)-1H-pyrazol-1-yl)-N-(2-(tetrahydro-2H-pyran-4-yl)ethyl)nicotinamide] |  | 537 | 
9 | Cc1cc(C#N)ccc1-c1cnn(-c2ccc(C(=O)N3CCN(C)C[C@@H]3C)cn2)c1O [Example 391, (S)-4-(1-(5-(2,4-dimethylpiperazine-1-carbonyl)pyridin-2-yl)-5-hydroxy-1H-pyrazol-4-yl)-3-methylbenzonitrile] |  | 1550 | 
10 | N#Cc1ccc(-c2cnn(-c3ccc(C(=O)NC4CCc5ccc(Cl)cc54)cn3)c2O)cc1 (stereo not drawn) [Example 79, N-(6-chloro-2,3-dihydro-1H-inden-1-yl)-6-(4-(4-cyanophenyl)-5-hydroxy-1H-pyrazol-1-yl)nicotinamide] |  | 1320 | 
11 | CNCCCNC(=O)c1ccc(-n2ncc(-c3ccc(C#N)cc3)c2O)nc1 [Example 272, 6-(4-(4-cyanophenyl)-5-hydroxy-1H-pyrazol-1-yl)-N-(3-(methylamino)propyl)nicotinamide hydrochloride] | 7.03 |  | 
12 | COc1cc(-c2cnn(-c3ccc(C(=O)NCCCN4CCCC4)cn3)c2O)ccn1 [Example 19, 6-(5-hydroxy-4-(2-methoxypyridin-4-yl)-1H-pyrazol-1-yl)-N-(3-(pyrrolidin-1-yl)propyl)nicotinamide] |  | 1380 | 
13 | COCCNC(=O)c1cnc(-n2ncc(-c3ccc(C#N)cc3)c2O)cc1C [Example 276, 6-(4-(4-cyanophenyl)-5-hydroxy-1H-pyrazol-1-yl)-N-(2-methoxyethyl)-4-methylnicotinamide] |  | 3630 | 
14 | COc1cc(-c2cnn(-c3ccc(C(=O)NCCCN4CCCCC4)cn3)c2O)ccn1 [Example 18, 6-(5-hydroxy-4-(2-methoxypyridin-4-yl)-1H-pyrazol-1-yl)-N-(3-(piperidin-1-yl)propyl)nicotinamide] |  | 933 | 

Continued, in another order:

Row | PHD Inhibition (pIC50) [2] | SMILES | EC50 [1] [nM] | also measured
15 | 6.95 | CC1CCCCN1CCCNC(=O)c1ccc(-n2ncc(-c3ccc(C#N)cc3)c2O)nc1 (stereo not drawn) [Example 90, 6-(4-(4-cyanophenyl)-5-hydroxy-1H-pyrazol-1-yl)-N-(3-(2-methylpiperidin-1-yl)propyl)nicotinamide] |  | 
16 | 7.4 | CCN1CCC(NC(=O)c2ccc(-n3ncc(-c4ccnc(OC)c4)c3O)nc2)CC1 [Example 37, N-(1-ethylpiperidin-4-yl)-6-(5-hydroxy-4-(2-methoxypyridin-4-yl)-1H-pyrazol-1-yl)nicotinamide] |  | 
17 | 6.21 | CN(C)c1cc(-c2cnn(-c3ccc(C(=O)NCC4CCOCC4)cn3)c2O)ccn1 [Example 212, 6-(4-(2-(dimethylamino)pyridin-4-yl)-5-hydroxy-1H-pyrazol-1-yl)-N-((tetrahydro-2H-pyran-4-yl)methyl)nicotinamide] |  | 
18 | 6.6 | O=C(NCC1CCOCC1)c1ccc(-n2ncc(-c3ccncc3)c2O)nc1 [Example 226, 6-(5-hydroxy-4-(pyridin-4-yl)-1H-pyrazol-1-yl)-N-((tetrahydro-2H-pyran-4-yl)methyl)nicotinamide] |  | 
19 | 6.72 | N#Cc1ccc(-c2cnn(-c3ccc(C(=O)NCC4CCC4)cn3)c2O)cc1 [Example 256, 6-(4-(4-cyanophenyl)-5-hydroxy-1H-pyrazol-1-yl)-N-(cyclobutylmethyl)nicotinamide] |  | 
20 | 7.2 | N#Cc1ccc(-c2cnn(-c3ccc(C(=O)N[C@H]4CCNC4)cn3)c2O)cc1 [Example 73, (S)-6-(4-(4-cyanophenyl)-5-hydroxy-1H-pyrazol-1-yl)-N-(pyrrolidin-3-yl)nicotinamide] |  | 
21 | 7.70 | CCCN1CCCN(C(=O)c2ccc(-n3ncc(-c4ccc(C#N)cc4C)c3O)nc2)CC1 [Example 424, 4-(5-hydroxy-1-(5-(4-propyl-1,4-diazepane-1-carbonyl)pyridin-2-yl)-1H-pyrazol-4-yl)-3-methylbenzonitrile] |  | 
22 | 8.3 | COCCC1(NC(=O)c2ccc(-n3ncc(-c4ccc(C#N)cc4F)c3O)nc2)CC1 [Example 210, 6-(4-(4-cyano-2-fluorophenyl)-5-hydroxy-1H-pyrazol-1-yl)-N-(1-(2-methoxyethyl)cyclopropyl)nicotinamide] |  | 
23 | 8.23 | Cc1cc(C#N)ccc1-c1cnn(-c2ccc(C(=O)N3CCN4CCCC4C3)cn2)c1O (stereo not drawn) [Example 407, 4-(5-hydroxy-1-(5-(octahydropyrrolo[1,2-a]pyrazine-2-carbonyl)pyridin-2-yl)-1H-pyrazol-4-yl)-3-methylbenzonitrile] |  | 
24 | 5.83 | Cc1cc(-c2cnn(-c3ccc(C(=O)NCC4CCOCC4)cn3)c2O)cc(C)n1 [Example 224, 6-(4-(2,6-dimethylpyridin-4-yl)-5-hydroxy-1H-pyrazol-1-yl)-N-((tetrahydro-2H-pyran-4-yl)methyl)nicotinamide] |  | 
25 | 6.63 | COCCCN(C)C(=O)c1ccc(-n2ncc(-c3ccc(C#N)cc3OC)c2O)nc1 [Example 240, 6-(4-(4-cyano-2-methoxyphenyl)-5-hydroxy-1H-pyrazol-1-yl)-N-(3-methoxypropyl)-N-methylnicotinamide] |  | 
26 | 6.87 | CN1CCC(CNC(=O)c2ccc(-n3ncc(-c4ccc(C#N)cc4)c3O)nc2)C1 (stereo not drawn) [Example 92, 6-(4-(4-cyanophenyl)-5-hydroxy-1H-pyrazol-1-yl)-N-((1-methylpyrrolidin-3-yl)methyl)nicotinamide] |  | 
27 | 7.01 | COc1cc(-c2cnn(-c3ccc(C(=O)NCCCCO)cn3)c2O)ccn1 [Example 28, 6-(5-hydroxy-4-(2-methoxypyridin-4-yl)-1H-pyrazol-1-yl)-N-(4-hydroxybutyl)nicotinamide] |  | 
28 | 6.99 | COc1cc(-c2cnn(-c3ccc(C(=O)NC(CO)C4CCOC4)cn3)c2O)ccn1 (stereo not drawn) [Example 27, N-(2-hydroxy-1-(tetrahydrofuran-3-yl)ethyl)-6-(5-hydroxy-4-(2-methoxypyridin-4-yl)-1H-pyrazol-1-yl)nicotinamide] |  | 
29 | 7.24 | CC1CC(CNC(=O)c2ccc(-n3ncc(-c4ccc(C#N)cc4)c3O)nc2)C1 (stereo not drawn) [Example 257, 6-(4-(4-cyanophenyl)-5-hydroxy-1H-pyrazol-1-yl)-N-((3-methylcyclobutyl)methyl)nicotinamide] |  | 
30 | 7.3 | COc1cc(-c2cnn(-c3ccc(C(=O)NCCCN(C)C)cn3)c2O)ccn1 [Example 44, N-(3-(dimethylamino)propyl)-6-(5-hydroxy-4-(2-methoxypyridin-4-yl)-1H-pyrazol-1-yl)nicotinamide] |  | 

Source: patent US10407409B2, “6-(5-hydroxy-1H-pyrazol-1-yl)nicotinamide inhibitors of PHD” (Takeda Pharmaceutical Company Limited, priority 2013, dated 2019)
